The test system of this assay is MV-4-11 cells. In words: Gene expression microarray analysis (Affymetrix PrimeView) and GSEA. Type of assay: cell-based, human. More on the design: RFU PODN (11730768_x_at) / Fold change /veh PODN (11730768_x_at) / RFU LINC00158 (11744669_a_at) / Fold change /veh LINC00158 (11744669_a_at) / RFU DUSP10 (11751237_a_at) / Fold change /veh DUSP10 (11751237_a_at) / RFU ID3 (11757404_x_at) / Fold change /veh ID3 (11757404_x_at) / RFU PLEKHG5 (11737974_s_at) / Fold change /veh PLEKHG5 (11737974_s_at) / RFU LRRC4B (11730491_at) / Fold change /veh LRRC4B (11730491_at) / RFU GIMAP4 (11747438_a_at) / Fold change /veh GIMAP4 (11747438_a_at) / RFU KRT8 (11758183_x_at) / Fold change /veh KRT8 (11758183_x_at) / RFU CNN1 (11734310_a_at) / Fold change /veh CNN1 (11734310_a_at) / RFU VPS37D (11726825_at) / Fold change /veh VPS37D (11726825_at) / RFU C10orf10 (11716522_x_at) / Fold change /veh C10orf10 (11716522_x_at) / RFU KIR2DL2 /// KIR2DL4 /// KIR2DL5A /// KIR2DL5B /// KIR2DS1 /// KIR2DS2 /// KIR2DS3 /// KIR2DS4 /// KIR3DL3 /// KIR3DL3 /// KIR3DS1 (11738374_at) / Fold change /veh KIR2DL2 /// KIR2DL4 /// KIR2DL5A /// KIR2DL5B /// KIR2DS1 /// KIR2DS2 /// KIR2DS3 /// KIR2DS4 /// KIR3DL3 /// KIR3DL3 /// KIR3DS1 (11738374_at) / RFU C1QL1 (11718748_at) / Fold change /veh C1QL1 (11718748_at) / RFU TMPRSS4 (11747572_a_at) / Fold change /veh TMPRSS4 (11747572_a_at) / RFU HAMP (11756126_x_at) / Fold change /veh HAMP (11756126_x_at) / RFU RNFT2 (11725882_a_at) / Fold change /veh RNFT2 (11725882_a_at) / RFU NR4A2 (11747474_a_at) / Fold change /veh NR4A2 (11747474_a_at) / RFU ABCC12 (11746883_a_at) / Fold change /veh ABCC12 (11746883_a_at) / RFU TMEM136 (11760407_x_at) / Fold change /veh TMEM136 (11760407_x_at) / RFU CLDN22 /// WWC2 (11732394_at) / Fold change /veh CLDN22 /// WWC2 (11732394_at) / RFU HLA-DPB1 (11760878_x_at) / Fold change /veh HLA-DPB1 (11760878_x_at) / RFU SPINT1 (11716480_a_at) / Fold change /veh SPINT1 (11716480_a_at) / RFU GAP43 (11754022_s_at) / Fold change /veh GAP43 (11754022_s_at) / RFU A4GNT (11735810_at) / Fold change /veh A4GNT (11735810_at) / RFU PRB3 (11715151_x_at) / Fold change /veh PRB3 (11715151_x_at) / RFU TUBB4B (11761932_at) / Fold change /veh TUBB4B (11761932_at) / RFU CAPN14 (11732068_a_at) / Fold change /veh CAPN14 (11732068_a_at) / RFU TMCC2 (11721928_a_at) / Fold change /veh TMCC2 (11721928_a_at) / RFU IRGQ (11745062_a_at) / Fold change /veh IRGQ (11745062_a_at) / RFU FAM174B (11720279_a_at) / Fold change /veh FAM174B (11720279_a_at) / RFU TMPRSS4 (11748680_a_at) / Fold change /veh TMPRSS4 (11748680_a_at) / RFU FAM212B (11763350_a_at) / Fold change /veh FAM212B (11763350_a_at) / RFU PLEKHG5 (11743358_a_at) / Fold change /veh PLEKHG5 (11743358_a_at) / RFU ZSCAN30 (11745921_a_at) / Fold change /veh ZSCAN30 (11745921_a_at) / RFU CMKLR1 (11741424_a_at) / Fold change /veh CMKLR1 (11741424_a_at) / RFU LOC101060620 /// MAPK8IP1 (11723275_at) / Fold change /veh LOC101060620 /// MAPK8IP1 (11723275_at) / RFU SPTSSB (11747773_x_at) / Fold change /veh SPTSSB (11747773_x_at) / RFU PRSS12 (11739890_at) / Fold change /veh PRSS12 (11739890_at) / RFU BIN1 (11741810_x_at) / Fold change /veh BIN1 (11741810_x_at) / RFU WNT11 (11732464_a_at) / Fold change /veh WNT11 (11732464_a_at) / RFU C10orf10 (11716521_a_at) / Fold change /veh C10orf10 (11716521_a_at) / RFU C5orf56 (11738089_at) / Fold change /veh C5orf56 (11738089_at) / RFU CYB561 (11721691_x_at) / Fold change /veh CYB561 (11721691_x_at) / RFU ANKRD19P (11752326_a_at) / Fold change /veh ANKRD19P (11752326_a_at) / RFU OR2T12 /// OR2T33 /// OR2T8 (11738714_s_at) / Fold change /veh OR2T12 /// OR2T33 /// OR2T8 (11738714_s_at) / RFU VCAN (11748164_a_at) / Fold change /veh VCAN (11748164_a_at) / RFU JSRP1 (11732532_at) / Fold change /veh JSRP1 (11732532_at) / RFU KRTAP10-11 (11738290_x_at) / Fold change /veh KRTAP10-11 (11738290_x_at) / RFU MYO3A (11730013_a_at) / Fold change /veh MYO3A (11730013_a_at) / RFU EBF3 (11725865_a_at) / Fold change /veh EBF3 (11725865_a_at) / RFU CAMK2N1 (11719241_x_at) / Fold change /veh CAMK2N1 (11719241_x_at) / RFU C5orf56 (11738088_a_at) / Fold change /veh C5orf56 (11738088_a_at) / RFU OLFML3 (11715873_a_at) / Fold change /veh OLFML3 (11715873_a_at) / RFU LOC100653217 /// NTM (11731650_a_at) / Fold change /veh LOC100653217 /// NTM (11731650_a_at) / RFU MAPK11 (11762145_a_at) / Fold change /veh MAPK11 (11762145_a_at) / RFU FIZ1 (11724087_x_at) / Fold change /veh FIZ1 (11724087_x_at) / RFU OASL (11726364_x_at) / Fold change /veh OASL (11726364_x_at) / RFU SOX15 (11748057_x_at) / Fold change /veh SOX15 (11748057_x_at) / RFU CD79A (11719716_a_at) / Fold change /veh CD79A (11719716_a_at) / RFU HIST1H1D (11736915_at) / Fold change /veh HIST1H1D (11736915_at) / RFU CASKIN2 (11723855_a_at) / Fold change /veh CASKIN2 (11723855_a_at) / RFU LOC730098 (11760151_x_at) / Fold change /veh LOC730098 (11760151_x_at) / RFU OR4N2 (11742367_at) / Fold change /veh OR4N2 (11742367_at) / RFU PRRT2 (11749266_a_at) / Fold change /veh PRRT2 (11749266_a_at) / RFU SNX32 (11753110_a_at) / Fold change /veh SNX32 (11753110_a_at) / RFU CDHR5 (11726645_a_at) / Fold change /veh CDHR5 (11726645_a_at) / RFU RCAN1 (11760418_a_at) / Fold change /veh RCAN1 (11760418_a_at) / RFU FAM167A (11723789_a_at) / Fold change /veh FAM167A (11723789_a_at) / RFU FAM26E (11764081_at) / Fold change /veh FAM26E (11764081_at) / RFU ISYNA1 (11749810_s_at) / Fold change /veh ISYNA1 (11749810_s_at) / RFU ACY1 (11761880_at) / Fold change /veh ACY1 (11761880_at) / RFU 11764098_at / Fold change /veh 11764098_at / RFU SAMD14 (11745864_x_at) / Fold change /veh SAMD14 (11745864_x_at) / RFU NPB (11741838_a_at) / Fold change /veh NPB (11741838_a_at) / RFU TMPRSS6 (11731388_a_at) / Fold change /veh TMPRSS6 (11731388_a_at) / RFU KRTAP10-2 (11738614_at) / Fold change /veh KRTAP10-2 (11738614_at) / RFU ARHGAP8 /// PRR5-ARHGAP8 (11727945_x_at) / Fold change /veh ARHGAP8 /// PRR5-ARHGAP8 (11727945_x_at) / RFU KRTAP5-7 /// NADSYN1 (11734609_at) / Fold change /veh KRTAP5-7 /// NADSYN1 (11734609_at) / RFU RASL12 (11751679_a_at) / Fold change /veh RASL12 (11751679_a_at) / RFU CDKN2B (11736163_a_at) / Fold change /veh CDKN2B (11736163_a_at) / RFU PRF1 (11729649_at) / Fold change /veh PRF1 (11729649_at) / RFU, ZNF638 /// ZNF638-IT1 / Fold change vs veh, ZNF638 /// ZNF638-IT1 / RFU, PANK3 / Fold change vs veh, PANK3 / RFU, SH3YL1 / Fold change vs veh, SH3YL1 / RFU, ZEB2 / Fold change vs veh, ZEB2 / RFU, NRIP1 / Fold change vs veh, NRIP1 / RFU, PTTG1IP / Fold change vs veh, PTTG1IP / RFU, CAPN2 / Fold change vs veh, CAPN2 / RFU, MED14 / Fold change vs veh, MED14 / RFU, SNORA58 / Fold change vs veh, SNORA58 / RFU, C1orf63 / Fold change vs veh, C1orf63 / RFU, LRRFIP1 / Fold change vs veh, LRRFIP1 / RFU, NDUFAF7 / Fold change vs veh, NDUFAF7 / RFU, SLC12A2 / Fold change vs veh, SLC12A2 / RFU, IBTK / Fold change vs veh, IBTK / RFU, ESF1 / Fold change vs veh, ESF1 / Fold change vs veh, TMEM50B / RFU, TAOK1 / Fold change vs veh, TAOK1 / RFU, ACBD3 / Fold change vs veh, ACBD3 / RFU, TMA16 / Fold change vs veh, TMA16 / RFU, RWDD3 / Fold change vs veh, RWDD3 / RFU, BCAT1 / Fold change vs veh, BCAT1 / RFU, EDEM3 / Fold change vs veh, EDEM3 / RFU, TMEM33 / Fold change vs veh, TMEM33 / RFU, WDR75 / Fold change vs veh, WDR75 / RFU, AHCTF1 / Fold change vs veh, AHCTF1 / RFU, TFRC / Fold change vs veh, TFRC / RFU, ZDHHC17 / Fold change vs veh, ZDHHC17 / RFU, NOM1 / Fold change vs veh, NOM1 / RFU, ARL8B / Fold change vs veh, ARL8B / RFU, ZBTB11 / Fold change vs veh, ZBTB11 / RFU, TAMM41 / Fold change vs veh, TAMM41 / RFU, KIAA1704 /// LOC100996395 / Fold change vs veh, KIAA1704 /// LOC100996395 / RFU, ING1 / Fold change vs veh, ING1 / RFU, TRMT61B / Fold change vs veh, TRMT61B / RFU, FUBP3 / Fold change vs veh, FUBP3 / RFU, TP53 / Fold change vs veh, TP53 / RFU, TNKS2 / Fold change vs veh, TNKS2 / RFU, ZFP14 / Fold change vs veh, ZFP14 / RFU, ACTR2 / Fold change vs veh, ACTR2 / RFU, PPP3R1 / Fold change vs veh, PPP3R1 / RFU, PIK3R1 / Fold change vs veh, PIK3R1 / RFU, HNRNPA1 / Fold change vs veh, HNRNPA1 / RFU, RNF170 / Fold change vs veh, RNF170 / RFU, ZNF28 / Fold change vs veh, ZNF28 / RFU, RNGTT / Fold change vs veh, RNGTT / RFU, OGT / Fold change vs veh, OGT / RFU, BRD1 / Fold change vs veh, BRD1 / RFU, MARS / Fold change vs veh, MARS / RFU, ZNF655 / Fold change vs veh, ZNF655 / RFU, FAHD1 / Fold change vs veh, FAHD1 / RFU, BDP1 / Fold change vs veh, BDP1 / RFU, LRRCC1 / Fold change vs veh, LRRCC1 / RFU, ARID1A / Fold change vs veh, ARID1A / RFU, ZNF146 / Fold change vs veh, ZNF146 / RFU, ZNF330 / Fold change vs veh, ZNF330 / RFU, GPN3 / Fold change vs veh, GPN3 / RFU, C9orf123 / Fold change vs veh, C9orf123 / RFU, N4BP2L2 / Fold change vs veh, N4BP2L2 / RFU, ARFIP1 / Fold change vs veh, ARFIP1 / RFU, FAM179B / Fold change vs veh, FAM179B / RFU, BCL10 / Fold change vs veh, BCL10 / RFU, UHRF1BP1L / Fold change vs veh, UHRF1BP1L / RFU, BET1 / Fold change vs veh, BET1 / RFU, CNOT2 / Fold change vs veh, CNOT2 / RFU, ZNF268 / Fold change vs veh, ZNF268 / Fold change vs veh, ZNF507 / RFU, DGCR2 / Fold change vs veh, DGCR2 / RFU, WDSUB1 / Fold change vs veh, WDSUB1 / Fold change vs veh, HSP90B1 /// MIR3652 / RFU, ADSS / Fold change vs veh, ADSS / RFU, GK / Fold change vs veh, GK / RFU, ZNF148 / Fold change vs veh, ZNF148 / RFU, TAF9 / Fold change vs veh, TAF9 / RFU, SLC1A5 / Fold change vs veh, SLC1A5 / RFU, SLMO2 / Fold change vs veh, SLMO2 / RFU, ABCC4 / Fold change vs veh, ABCC4 / RFU, LOC101060439 /// RAP1B / Fold change vs veh, LOC101060439 /// RAP1B / RFU, RFX7 / Fold change vs veh, RFX7 / RFU, GTPBP10 / Fold change vs veh, GTPBP10 / RFU, CNEP1R1 / Fold change vs veh, CNEP1R1 / RFU, BIVM-ERCC5 /// ERCC5 / Fold change vs veh, BIVM-ERCC5 /// ERCC5 / RFU, ILF3 / Fold change vs veh, ILF3 / RFU 11762660_at / Fold change /veh 11762660_at / RFU VCAN (11757783_s_at) / Fold change /veh VCAN (11757783_s_at) / RFU DDX43 (11728927_at) / Fold change /veh DDX43 (11728927_at) / RFU KRT8 (11758188_x_at) / Fold change /veh KRT8 (11758188_x_at) / RFU NKD1 (11759106_at) / Fold change /veh NKD1 (11759106_at) / RFU SRD5A1 (11742802_a_at) / Fold change /veh SRD5A1 (11742802_a_at) / RFU TPSAB1 /// TPSB2 (11721975_s_at) / Fold change /veh TPSAB1 /// TPSB2 (11721975_s_at) / RFU GSTM3 (11746129_a_at) / Fold change /veh GSTM3 (11746129_a_at) / RFU IL23R (11737362_x_at) / Fold change /veh IL23R (11737362_x_at) / RFU TMEM51 (11727254_a_at) / Fold change /veh TMEM51 (11727254_a_at) / RFU PIWIL2 (11732686_x_at) / Fold change /veh PIWIL2 (11732686_x_at) / RFU ORM1 (11744905_x_at) / Fold change /veh ORM1 (11744905_x_at) / RFU CCDC152 (11743942_at) / Fold change /veh CCDC152 (11743942_at) / RFU ECM1 (11717891_a_at) / Fold change /veh ECM1 (11717891_a_at) / RFU IL23R (11748794_a_at) / Fold change /veh IL23R (11748794_a_at) / RFU TNFAIP8L3 (11732012_x_at) / Fold change /veh TNFAIP8L3 (11732012_x_at) / RFU MBOAT4 (11741988_at) / Fold change /veh MBOAT4 (11741988_at) / RFU 11764193_at / Fold change /veh 11764193_at / RFU TMEM53 (11763286_at) / Fold change /veh TMEM53 (11763286_at) / RFU MAGEB2 (11727129_at) / Fold change /veh MAGEB2 (11727129_at) / RFU TMEM200A (11744735_a_at) / Fold change /veh TMEM200A (11744735_a_at) / RFU CCDC152 (11751479_a_at) / Fold change /veh CCDC152 (11751479_a_at) / RFU FAM211A (11726209_a_at) / Fold change /veh FAM211A (11726209_a_at) / RFU RGS16 (11746705_a_at) / Fold change /veh RGS16 (11746705_a_at) / RFU VCAN (11755009_s_at) / Fold change /veh VCAN (11755009_s_at) / RFU RHOB (11743442_s_at) / Fold change /veh RHOB (11743442_s_at) / RFU RGS16 (11720943_a_at) / Fold change /veh RGS16 (11720943_a_at) / RFU RGS16 (11720944_at) / Fold change /veh RGS16 (11720944_at) / RFU, VPS4B / Fold change vs veh, VPS4B / RFU, CREB1 / Fold change vs veh, CREB1 / RFU, DNAJC13 / Fold change vs veh, DNAJC13 / RFU, GNAQ / Fold change vs veh, GNAQ / RFU, CDK5R1 / Fold change vs veh, CDK5R1 / RFU, ZRANB3 / Fold change vs veh, ZRANB3 / RFU, CUL4A / Fold change vs veh, CUL4A / RFU, CCNY / Fold change vs veh, CCNY / RFU, UFL1 / Fold change vs veh, UFL1 / RFU, COG3 / Fold change vs veh, COG3 / RFU, DIAPH2 / Fold change vs veh, DIAPH2 / RFU, SKA2 / Fold change vs veh, SKA2 / RFU, AFF3 / Fold change vs veh, AFF3 / RFU, LMF1 / Fold change vs veh, LMF1 / RFU, IPO11 / Fold change vs veh, IPO11 / RFU, DFFB / Fold change vs veh, DFFB / RFU, FOXP1 / Fold change vs veh, FOXP1 / RFU, CARD8 / Fold change vs veh, CARD8 / RFU, STRN3 / Fold change vs veh, STRN3 / RFU, ADK / Fold change vs veh, ADK / RFU, RASSF2 / Fold change vs veh, RASSF2 / RFU, WIPF1 / Fold change vs veh, WIPF1 / RFU, LARP1B / Fold change vs veh, LARP1B / RFU, RASA1 / Fold change vs veh, RASA1 / RFU, RB1 / Fold change vs veh, RB1 / RFU, PPFIA1 / Fold change vs veh, PPFIA1 / RFU, MAT2A / Fold change vs veh, MAT2A / RFU, CCT5 / Fold change vs veh, CCT5 / RFU, WDR92 / Fold change vs veh, WDR92 / RFU, CUX1 / Fold change vs veh, CUX1 / RFU, TTC7A / Fold change vs veh, TTC7A / RFU, TMEM135 / Fold change vs veh, TMEM135 / RFU, DEPTOR / Fold change vs veh, DEPTOR / RFU, CPM / Fold change vs veh, CPM / RFU, DNAJB6 / Fold change vs veh, DNAJB6 / RFU, CACNA2D3 / Fold change vs veh, CACNA2D3 / RFU, DTX4 / Fold change vs veh, DTX4 / RFU, TFCP2 / Fold change vs veh, TFCP2 / RFU, GMCL1 /// GMCL1P1 / Fold change vs veh, GMCL1 /// GMCL1P1 / RFU, AEBP2 / Fold change vs veh, AEBP2 / RFU, SNHG1 /// SNORD22 /// SNORD25 /// SNORD26 /// SNORD27 /// SNORD28 /// SNORD29 /// SNORD31 / Fold change vs veh, SNHG1 /// SNORD22 /// SNORD25 /// SNORD26 /// SNORD27 /// SNORD28 /// SNORD29 /// SNORD31 / Fold change (Aza/veh), C12orf56 (ProbeSet 11735607_a_at) / Fold change (ACY-1035/veh), C12orf56 (ProbeSet 11735607_a_at) / Fold change (Aza/veh), FGFR1OP (ProbeSet 11751329_s_at) / Fold change (ACY-1035/veh), FGFR1OP (ProbeSet 11751329_s_at) / Fold change (Aza/veh), VPS36 (ProbeSet 11739960_a_at) / Fold change (ACY-1035/veh), VPS36 (ProbeSet 11739960_a_at) / RFU SYPL1 (11715823_x_at) / Fold change /veh SYPL1 (11715823_x_at) / RFU IGFBP7 (11715501_s_at) / Fold change /veh IGFBP7 (11715501_s_at) / RFU REEP3 (11722064_at) / Fold change /veh REEP3 (11722064_at) / RFU IGLL1 (11728026_x_at) / Fold change /veh IGLL1 (11728026_x_at): dose or concentration left out as unconfirmed. Conditions: ProbeSet 11747937_a_at; LIST D.

This note sets out measurements from paper PMC5218480 (PLoS ONE, 2017).

For the molecule `Nc1ccc(-c2cccs2)cc1NC(=O)c1ccc2c(c1)cc(C1CC1)n2CCN1CCOCC1` [ACY-1035], the “RFU, DNAJB6” value worked out at 348.58 RFU.
